Test results: patent US20260217735A1, “HETEROCYCLES AND USES THEREOF” (Kumquat Biosciences Inc., priority 2023, published 2026)

Tests used:
KRAS G12D = target: T1, KRAS G12D (Homo sapiens, UniProt P01116, G12D); assay: HTRF assay, KRAS G12D interaction with SOS1; assay type: biochemical; details: bins <500 nM / 500 nM to 1000 nM, read-out: Inhibition of KRAS G12D (IC50)
T1 construct: made in house; host or cells: E. coli, e.g. BL21 (DE3)
Description: (§1) This assay can be also used to assess a selective inhibition or reduction of signaling output of a mutant Ras protein relative to a wildtype, or relative to a different mutant Ras protein. For example, the equilibrium interaction of wildtype KRAS or K-Ras mutant (e.g., wildtype or a mutant thereof) with SOS1 (e.g., hSOS1) can be assessed as a proxy or an indication for the ability of a subject compound to bind and inhibit Ras protein. The HTRF assay detects from (i) a fluorescence resonance energy transfer (FRET) donor (e.g., antiGST-Europium) that is bound to GST-tagged K-Ras mutant to (ii) a FRET acceptor (e.g., anti-6His-XL665) bound to a His-tagged hSOSL1.
(§2) The assay buffer can contain ~5 mM HEPES pH 7.4, ~150 mM NaCl, ~1 mM DTT, 0.05% BSA and 0.0025% (v/v) Igepal. A Ras working solution is prepared in an assay buffer containing typically a suitable amount of the protein construct (e.g., GST-tagged K-Ras mutant) and the FRET donor (e.g., antiGST-Eu(K) from Cisbio, France). A SOS1 working solution is prepared in an assay buffer containing suitable amount of the protein construct (e.g., His-hSOS1) and the FRET acceptor (e.g., anti-6His-XL665 from Cisbio, France). A suitable amount of the protein construct will depend on the range of activity or range of IC50 values being detected or under investigation. For detecting an IC50 within a range of 500 nM, the protein constructs of the same range of molarity can be utilized.
(§3) A fixed volume of DMSO with or without test compound is transferred into a 384-well plate. Ras working solution is added to all wells of the test plate. SOS1 working solution is added to all wells except for those that are subsequently filled with inhibitor control solution. Upon incubation for about 10 minutes or longer, the fluorescence is measured with a M1000Pro plate reader (Tecan) using HTRF detection (excitation 337 nm, emission 1: 620 nm, emission 2: 665 nm). Compounds are tested in duplicate at different concentrations (for example, 10 μM, 2.5 μM, 0.63 μM, 0.16 μM, 0.04 μM, 0.01 μM test compound). The ratiometric data (i.e., emission 2 divided by emission 1) is used to calculate IC50 values against Ras using GraphPad Prism (GraphPad software). Signaling output measured in terms of IC50 values can be obtained and a ratio of IC50 against one mutant relative to another mutant can be calculated. For instance, a selective reduction of K-Ras G12S signaling output can be evidenced by a ratio greater than one. In particular, a selective reduction of K-Ras G12S signaling relative to K-Ras WT signaling is evidenced if the ratio of IC50 (against K-Ras WT) to IC50 (against K-Ras G12S) is greater than 1.

KRAS WT = target: T2, KRAS WT (Homo sapiens, UniProt P01116); assay: HTRF assay, wildtype KRAS interaction with SOS1; assay type: biochemical; details: bins <500 nM / 500 nM to 1000 nM, read-out: Inhibition of KRAS WT (IC50)
T2 construct: made in house; host or cells: E. coli, e.g. BL21 (DE3)
T2 sequence (P01116 1-188 isoform P01116-2): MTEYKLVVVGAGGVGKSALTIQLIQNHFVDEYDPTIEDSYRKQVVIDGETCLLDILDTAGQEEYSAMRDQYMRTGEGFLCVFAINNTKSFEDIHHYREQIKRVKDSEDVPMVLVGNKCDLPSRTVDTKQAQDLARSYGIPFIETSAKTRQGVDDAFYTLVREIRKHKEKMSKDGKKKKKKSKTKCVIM
Description: as §1, §2, §3

KRAS G12V = target: T3, KRAS G12V (Homo sapiens, UniProt P01116, G12V); assay: HTRF assay, KRAS G12V interaction with SOS1; assay type: biochemical; details: bins <500 nM / 500 nM to 1000 nM, read-out: Inhibition of KRAS G12V (IC50)
T3 construct: made in house; host or cells: E. coli, e.g. BL21 (DE3)
T3 sequence (P01116 1-188 isoform P01116-2 G12V): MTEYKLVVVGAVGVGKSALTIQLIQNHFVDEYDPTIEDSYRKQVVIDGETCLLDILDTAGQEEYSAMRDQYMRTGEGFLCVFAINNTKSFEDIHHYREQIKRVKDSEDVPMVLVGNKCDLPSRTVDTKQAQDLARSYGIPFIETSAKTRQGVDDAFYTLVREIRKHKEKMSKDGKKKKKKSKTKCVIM
Description: as §1, §2, §3

KRAS G12S = target: T4, KRAS G12S (Homo sapiens, UniProt P01116, G12S); assay: HTRF assay, KRAS G12S interaction with SOS1; assay type: biochemical; details: bins <500 nM / 500 nM to 1000 nM, read-out: Inhibition of KRAS G12S (IC50)
T4 construct: made in house; host or cells: E. coli, e.g. BL21 (DE3)
T4 sequence (P01116 1-188 isoform P01116-2 G12S): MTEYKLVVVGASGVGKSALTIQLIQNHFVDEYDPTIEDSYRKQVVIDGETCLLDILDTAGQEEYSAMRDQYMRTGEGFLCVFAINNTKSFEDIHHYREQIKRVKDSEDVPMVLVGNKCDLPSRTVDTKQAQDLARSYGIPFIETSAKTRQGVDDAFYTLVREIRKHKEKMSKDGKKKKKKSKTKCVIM
Description: as §1, §2, §3

MiaPaca2 cells = assay: Ras cellular assay, growth of cells with K-Ras G12C mutation; assay type: cell-based; details: Homo sapiens, MIA PaCa-2; cell proliferation assay; bins ≤500 nM / >500 nM; read-out: Inhibition of MiaPaca2 Cells (IC50)
Description: For example, this assay can be also used to assess selective growth inhibition of a mutant Ras protein relative to a wildtype or different mutant Ras protein.
MIA PaCa-2 (ATCC CRL-1420) and NCI-H1792 (ATCC CRL-5895) cell lines comprise a G12C mutation and can be used to assess Ras cellular signaling in vitro, e.g., in response to an inhibitor compound of the present disclosure. […] MIA PaCa-2 culture medium is prepared with DMEM/Ham's F12 (e.g., with stable glutamine, 10% FCS, and 2.5% horse serum. NCI-H1792 culture medium is prepared with RPMI 1640 (e.g., with stable glutamine) and 10% FCS.
On a first day (e.g., Day 1), Softagar (Select Agar, Invitrogen, 3% in ddH2O autoclaved) is boiled and tempered at 48° C. Appropriate culture medium (i.e., medium) is tempered to 37° C. Agar (3%) is diluted 1:5 in medium (=0.6%) and plated into 96 well plates (Corning, #3904), then incubated at room temperature for agar solidification. A 3% agar is diluted to 0.25% in medium (1:12 dilution) and tempered at 42° C. Cells are trypsinized, counted, and tempered at 37° C. The cells (e.g., MIA PaCa-2 at about 125-150 cells, NCI-H1792 at about 1000 cells) are resuspended in […] 0.25% Agar and plated, followed by incubation at room temperature for agar solidification. The wells are overlaid with […] of the medium. Sister wells in a separate plate are plated for time zero determination. All plates are incubated overnight at 37° C. and 5% CO2.
On a second day (e.g., Day 2), time zero values are measured. A […] volume of Cell Titer 96 Aqueous Solution (Promega) is added to each well and incubated in the dark at 37° C. and 5% CO2. Absorption can be measured at 490 nm and reference wavelength 660 nm. DMSO-prediluted test compounds are added to wells of interest, e.g., with HP Dispenser, to one or more desired concentrations (e.g., a final DMSO concentration of 0.3%).
On a tenth day (e.g., Day 10), absorption by wells treated with the test compounds and control wells are measured with, for example, Cell Titer 96 AQueous and analyzed in comparison to the time zero measurements. The IC50 values are determined using the four parameter fit. The resulting IC50 value is a measurement of the ability of the test compound to reduce cell growth of Ras-driven cells (e.g., tumor cell lines) in vitro and/or in vivo.

T1 sequence (P01116 1-188 isoform P01116-2 G12D): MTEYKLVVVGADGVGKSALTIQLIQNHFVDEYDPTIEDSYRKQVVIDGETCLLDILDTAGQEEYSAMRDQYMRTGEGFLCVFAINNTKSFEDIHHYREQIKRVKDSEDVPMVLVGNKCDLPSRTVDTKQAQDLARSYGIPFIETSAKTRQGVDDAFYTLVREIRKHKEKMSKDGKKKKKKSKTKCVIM

IC50 (KRAS G12D) [nM] | IC50 (KRAS WT) [nM] | IC50 (KRAS G12V) [nM] | IC50 (KRAS G12S) [nM] | IC50 (MiaPaca2 cells) [nM] | Compound
< 500 | < 500 | < 500 | < 500 | ≤ 500 | CC[C@H]1N(C(=O)n2cnc(C)c2C)C[C@]12CCCCN(c1nc(OC[C@@]34CCCN3C[C@H](F)C4)nc3c(F)c(-c4ccc(F)c5sc(N)c(C#N)c45)c(Cl)cc13)C2 [Compound 215, 2-amino-4-(6-chloro-4-((1R,4R)-2-(4,5-dimethyl-1H-imidazole-1-carbonyl)-1-ethyl-2,6-diazaspiro[3.6]decan-6-yl)-8-fluoro-2-(((2R,7aS)-2-fluorotetrahydro-1H-pyrrolizin-7a(5H)-yl)methoxy)quinazolin-7-yl)-7-fluorobenzo[b]thiophene-3-carbonitrile]
< 500 | < 500 | < 500 | < 500 | ≤ 500 | Cc1c(C#N)ncn1C(=O)N1C[C@]2(CCCCN(c3nc(OC[C@@]45CCCN4C[C@H](F)C5)nc4c(F)c(-c5ccc(F)c6sc(N)c(C#N)c56)c(Cl)cc34)C2)[C@H]1C1(C)CC1 [Compound 111, 1-((1R,4R)-6-(7-(2-amino-3-cyano-7-fluorobenzo[b]thiophen-4-yl)-6-chloro-8-fluoro-2-(((2R,7aS)-2-fluorotetrahydro-1H-pyrrolizin-7a(5H)-yl)methoxy)quinazolin-4-yl)-1-(1-methylcyclopropyl)-2,6-diazaspiro[3.6]decane-2-carbonyl)-5-methyl-1H-imidazole-4-carbonitrile]
< 500 | < 500 | < 500 | < 500 | ≤ 500 | Cc1nc(C#N)cn1C(=O)N1CC2CCN(c3nc(OC[C@@]45CCCN4C[C@H](F)C5)nc4c(F)c(-c5ccc(F)c6sc(N)c(C#N)c56)c(Cl)cc34)C2C1 (stereo partly drawn) [Compound 192, 1-(1-(7-(2-amino-3-cyano-7-fluorobenzo[b]thiophen-4-yl)-6-chloro-8-fluoro-2-(((2R,7aS)-2-fluorotetrahydro-1H-pyrrolizin-7a(5H)-yl)methoxy)quinazolin-4-yl)octahydropyrrolo[3,4-b]pyrrole-5-carbonyl)-2-methyl-1H-imidazole-4-carbonitrile]
< 500 | < 500 | < 500 | < 500 | ≤ 500 | Cc1c(C#N)ncn1C(=O)N1CC[C@@]12CCN(c1nc(OC[C@@]34CCCN3C[C@H](F)C4)nc3c(F)c(-c4ccc(F)c5sc(N)c(C#N)c45)c(Cl)cc13)C2 [Compound 121, 1-((4R)-6-(7-(2-amino-3-cyano-7-fluorobenzo[b]thiophen-4-yl)-6-chloro-8-fluoro-2-(((2R,7aS)-2-fluorotetrahydro-1H-pyrrolizin-7a(5H)-yl)methoxy)quinazolin-4-yl)-1,6-diazaspiro[3.4]octane-1-carbonyl)-5-methyl-1H-imidazole-4-carbonitrile]
– | – | – | – | ≤ 500 | CCN(c1nc(OCC23CCCN2C(COc2cc(C(F)(F)F)ncn2)CC3)nc2c(F)c(-c3ccc(F)c4sc(N)c(C#N)c34)c(Cl)cc12)[C@@H]1CCN(C(=O)n2cc(C)nc2C)[C@@H]1C (single isomer, unassigned) [Compound 217]
– | – | – | – | ≤ 500 | CC1CC(N(C)c2nc(OC[C@@]34CCCN3C[C@H](F)C4)nc3c(F)c(-c4ccc(F)c5sc(N)c(C#N)c45)c(Cl)cc23)CN1C(=O)n1cnc(F)n1 (mixture of isomers) [Compound 150, 2-amino-4-(6-chloro-8-fluoro-4-((1-(3-fluoro-1H-1,2,4-triazole-1-carbonyl)-5-methylpyrrolidin-3-yl)(methyl)amino)-2-(((2R,7aS)-2-fluorotetrahydro-1H-pyrrolizin-7a(5H)-yl)methoxy)quinazolin-7-yl)-7-fluorobenzo[b]thiophene-3-carbonitrile]
< 500 | – | – | – | ≤ 500 | CC1CC(N(C)c2nc(OC[C@@]34CCCN3C[C@H](F)C4)nc3c(F)c(-c4ccc(F)c5sc(N)c(C#N)c45)c(Cl)cc23)CCN1C(=O)n1ccnc1 (stereo partly drawn) [Compound 209, 4-(4-((1-(1H-imidazole-1-carbonyl)-2-methylpiperidin-4-yl)(methyl)amino)-6-chloro-8-fluoro-2-(((2R,7aS)-2-fluorotetrahydro-1H-pyrrolizin-7a(5H)-yl)methoxy)quinazolin-7-yl)-2-amino-7-fluorobenzo[b]thiophene-3-carbonitrile]
– | – | – | – | ≤ 500 | CN(c1nc(OC[C@@]23CCCN2C[C@H](F)C3)nc2c(F)c(-c3ccc(F)c4sc(N)c(C#N)c34)c(Cl)cc12)C1CN(C(=O)n2ccnc2)CC1F (single isomer, unassigned) [Compound 189]
< 500 | < 500 | < 500 | < 500 | – | C=C1CN2CC(=C)CC2(COc2nc(N(CC)[C@@H]3CCN(C(=O)n4cnc(Cl)n4)[C@@H]3C)c3cc(C(F)(F)F)c(-c4ccc(F)c5sc(N)c(C#N)c45)c(F)c3n2)C1 [Compound 219, 2-amino-4-(4-(((2R,3R)-1-(3-chloro-1H-1,2,4-triazole-1-carbonyl)-2-methylpyrrolidin-3-yl)(ethyl)amino)-2-((2,6-dimethylenetetrahydro-1H-pyrrolizin-7a(5H)-yl)methoxy)-8-fluoro-6-(trifluoromethyl)quinazolin-7-yl)-7-fluorobenzo[b]thiophene-3-carbonitrile]
